From patent US20090088412A1, “COMPOSITION FOR TREATING CANCER CELLS AND PREPARATION METHOD THEREOF” (KAOHSIUNG MEDICAL UNIVERSITY, priority 2007, published 2009)
Converted amounts (≈) assume the structure as drawn.

Tests used:
[1] = test system: Hep G2; test: MTT cytotoxicity test, Hep G2; assay type: cell-based, human; settings: liver cancer cell line, 72 hours
Experimental: (§1) The bioactivities of the 25 new withanolide compounds of the present invention are further studied. The bioactivities are measured by examining cytotoxicity tests with 5 human cancer cell lines, including MCF-7 and MDA-MB-231 (which are the breast cancer cell lines), Hep G2 and Hep 3B (which are the liver cancer cell line), and A549 (which is lung cancer cell line). In addition, a normal human lung cell line (MRC-5) is served as the control group. All human cancer cell lines come from the American Type Culture Collection. The respective cell lines are cultured in RPMI-1640 medium with 10% (v/v) fetal calf serum, 100 U/ml penicillin and 100 µg/ml streptomycin, and incubated at 37° C. in 5% CO2 atmosphere.
(§2) In the present invention, the cytotoxicity tests are performed with MTT (3-(4,5-dimethyl-thiazol-2-yl)-2,5-diphenyl tetrazolium bromide) method. The five cancer cell lines and the normal cell line (MRC-5) are firstly incubated in a 96-well culture dish with concentrations of 5,000˜10,000 cells/well. In Day 2, the respective incubated cells are added with the withanolide compounds of the present invention and Doxorubicin and are incubated for additional 72 hours. Afterwards, the incubated cells are examined with the MTT method including steps of dissolving the incubated cells in DMSO, and determining the absorbance of each cell line to each compound by a microplate reader in 550 nm to evaluate the cytotoxicity of each compound to each cell line. […] The IC50 represents the concentration of the compound that is required for 50% inhibition of the cell growth, and Doxorubicin serves as the positive control group.

[2] = test system: A-549; test: MTT cytotoxicity test, A-549; assay type: cell-based, human; settings: lung cancer cell line, 72 hours
Experimental: as §1, §2

[3] = test system: MDA-MB-231; test: MTT cytotoxicity test, MDA-MB-231; assay type: cell-based, human; settings: breast cancer cell line, 72 hours
Experimental: as §1, §2

[4] = test system: Hep 3B; test: MTT cytotoxicity test, Hep 3B; assay type: cell-based, human; settings: liver cancer cell line, 72 hours
Experimental: as §1, §2

[5] = test system: MCF-7; test: MTT cytotoxicity test, MCF-7; assay type: cell-based, human; settings: breast cancer cell line, 72 hours
Experimental: as §1, §2

[6] = test system: MRC-5; test: MTT cytotoxicity test, normal lung cell line MRC-5; assay type: cell-based; settings: normal human lung cell line, 72 hours
Experimental: as §1, §2

CC1=C(C)C(=O)O[C@@H]([C@@H](C)[C@@]2(C)C3=C(C[C@H]2O)[C@@H]2C[C@H]4O[C@]45[C@@H](O)C(O)CC(=O)[C@]5(C)[C@H]2CC3)C1 (stereo partly drawn) [Compound 3, Tubocapsenolide C]
IC50 Hep G2 [1]: 15.93 µg/mL (≈ 32.7 µM) | IC50 A-549 [2]: 7.06 µg/mL (≈ 14.5 µM) | IC50 MDA-MB-231 [3]: >20 µg/mL | IC50 Hep 3B [4]: >20 µg/mL | IC50 MCF-7 [5]: >20 µg/mL

CCCCOC1CC(=O)[C@]2(C)[C@H]3CCC4=C(C[C@@H](O)[C@@]4(C)[C@H](C)[C@H]4CC(C)=C(C)C(=O)O4)[C@@H]3C[C@H]3O[C@]32[C@H]1O (stereo partly drawn) [Compound 5, Tubocapsenolide E]
IC50 Hep G2 [1]: 12.31 µg/mL (≈ 22.7 µM) | IC50 A-549 [2]: 15.94 µg/mL (≈ 29.4 µM) | IC50 MDA-MB-231 [3]: 17.50 µg/mL (≈ 32.2 µM) | IC50 Hep 3B [4]: 13.20 µg/mL (≈ 24.3 µM) | IC50 MCF-7 [5]: >20 µg/mL

CC1=C(C)C(=O)O[C@@H]([C@@H](C)[C@@]2(C)C3=C(C[C@H]2O)[C@@H]2C[C@H](O)[C@]4(O)[C@@H](O)C=CC(=O)[C@]4(C)[C@H]2CC3)C1 [Compound 6, Tubocapsenolide F]
IC50 Hep G2 [1]: >20 µg/mL | IC50 A-549 [2]: 6.04 µg/mL (≈ 12.4 µM) | IC50 MDA-MB-231 [3]: 8.41 µg/mL (≈ 17.3 µM) | IC50 Hep 3B [4]: 15.07 µg/mL (≈ 31 µM) | IC50 MCF-7 [5]: 14.71 µg/mL (≈ 30.2 µM)

CC1=C(C)C(=O)O[C@@H]([C@@H](C)[C@@]2(C)C3=C(C[C@H]2O)[C@@H]2C[C@H](Cl)[C@]4(O)[C@@H](O)C=CC(=O)[C@]4(C)[C@H]2CC3)C1 [Compound 7, Tubocapsenolide G]
IC50 Hep G2 [1]: 19.12 µg/mL (≈ 37.9 µM) | IC50 A-549 [2]: 19.94 µg/mL (≈ 39.5 µM) | IC50 MDA-MB-231 [3]: >20 µg/mL | IC50 Hep 3B [4]: >20 µg/mL | IC50 MCF-7 [5]: >20 µg/mL

CC1=C(C)C(=O)O[C@@H]([C@@H](C)[C@@]23O[C@@H]2C[C@H]2[C@@H]4C[C@H]5O[C@]56[C@@H](O)C=CC(=O)[C@]6(C)[C@H]4CC[C@@]23C)C1 [Compound 8, Tubocapsanolide A]
IC50 MRC-5 [6]: 0.73 µg/mL (≈ 1.56 µM) | IC50 Hep G2 [1]: 0.86 µg/mL (≈ 1.84 µM) | IC50 A-549 [2]: 0.47 µg/mL (≈ 1 µM) | IC50 MDA-MB-231 [3]: 0.22 µg/mL (≈ 0.469 µM) | IC50 Hep 3B [4]: 0.42 µg/mL (≈ 0.896 µM) | IC50 MCF-7 [5]: 1.47 µg/mL (≈ 3.14 µM)

CC1=C(C)C(=O)O[C@@H]([C@](C)(O)[C@@]23O[C@@H]2C[C@H]2[C@@H]4C[C@H]5O[C@]56[C@@H](O)C=CC(=O)[C@]6(C)[C@H]4CC[C@@]23C)C1 [Compound 9, 20-Hydroxytubocapsanolide A]
IC50 MRC-5 [6]: 1.36 µg/mL (≈ 2.81 µM) | IC50 Hep G2 [1]: 0.73 µg/mL (≈ 1.51 µM) | IC50 A-549 [2]: 1.42 µg/mL (≈ 2.93 µM) | IC50 MDA-MB-231 [3]: 0.99 µg/mL (≈ 2.04 µM) | IC50 Hep 3B [4]: 0.99 µg/mL (≈ 2.04 µM) | IC50 MCF-7 [5]: 1.77 µg/mL (≈ 3.65 µM)

CC1=C(C)[C@H](O)[C@H]([C@@H](C)[C@@]23O[C@@H]2C[C@H]2[C@@H]4C[C@H]5O[C@]56[C@@H](O)C=CC(=O)[C@]6(C)[C@H]4CC[C@@]23C)OC1=O [Compound 10, 23-Hydroxytubocapsanolide A]
IC50 MRC-5 [6]: 0.90 µg/mL (≈ 1.86 µM) | IC50 Hep G2 [1]: 0.44 µg/mL (≈ 0.908 µM) | IC50 A-549 [2]: 0.79 µg/mL (≈ 1.63 µM) | IC50 MDA-MB-231 [3]: 1.19 µg/mL (≈ 2.46 µM) | IC50 Hep 3B [4]: 0.49 µg/mL (≈ 1.01 µM) | IC50 MCF-7 [5]: 2.05 µg/mL (≈ 4.23 µM)

CC1=C(C)C(=O)O[C@@H]([C@@H](C)[C@@]2(O)CC[C@H]3[C@@H]4C[C@H](O)[C@]5(O)[C@@H](O)C=CC(=O)[C@]5(C)[C@H]4CC[C@@]32C)C1 [Compound 13, Tubocapsanolide D]
IC50 Hep G2 [1]: >20 µg/mL | IC50 A-549 [2]: 8.01 µg/mL (≈ 16.4 µM) | IC50 MDA-MB-231 [3]: 13.49 µg/mL (≈ 27.6 µM) | IC50 Hep 3B [4]: 7.19 µg/mL (≈ 14.7 µM) | IC50 MCF-7 [5]: >20 µg/mL

COC1CC(=O)[C@]2(C)[C@H]3CC[C@@]4(C)[C@@H](CC[C@]4(O)[C@H](C)[C@H]4CC(C)=C(C)C(=O)O4)[C@@H]3C[C@H]3O[C@]32[C@H]1O (stereo partly drawn) [Compound 15, Tubocapsanolide G]
IC50 Hep G2 [1]: 17.55 µg/mL (≈ 34.9 µM) | IC50 A-549 [2]: >20 µg/mL | IC50 MDA-MB-231 [3]: >20 µg/mL | IC50 Hep 3B [4]: >20 µg/mL | IC50 MCF-7 [5]: >20 µg/mL

COC1CC(=O)[C@]2(C)[C@H]3CC[C@]4(C)[C@@H]([C@@](C)(O)[C@H]5CC(C)=C(C)C(=O)O5)CC[C@H]4[C@@H]3C[C@H]3O[C@]32[C@H]1O (stereo partly drawn) [Compound 16, iso-Tubocapsanolide G]
IC50 Hep G2 [1]: 5.99 µg/mL (≈ 11.9 µM) | IC50 A-549 [2]: 4.73 µg/mL (≈ 9.41 µM) | IC50 MDA-MB-231 [3]: 8.18 µg/mL (≈ 16.3 µM) | IC50 Hep 3B [4]: 7.63 µg/mL (≈ 15.2 µM) | IC50 MCF-7 [5]: >20 µg/mL

C[C@@]12CC([C@@]3(O)[C@H](O)C[C@H]4[C@@H]5C[C@H]6O[C@]67[C@@H](O)C=CC(=O)[C@]7(C)[C@H]5CC[C@@]43C)[C@@H](C1)OC(=O)[C@]2(C)O (stereo partly drawn) [Compound 21, Anomanolide C]
IC50 Hep G2 [1]: 4.41 µg/mL (≈ 8.77 µM) | IC50 A-549 [2]: 2.80 µg/mL (≈ 5.57 µM) | IC50 MDA-MB-231 [3]: 1.58 µg/mL (≈ 3.14 µM) | IC50 Hep 3B [4]: 1.85 µg/mL (≈ 3.68 µM) | IC50 MCF-7 [5]: 8.01 µg/mL (≈ 15.9 µM)

C[C@@]12CC([C@@]3(O)[C@H](O)C[C@H]4[C@@H]5C[C@H](Cl)[C@]6(O)[C@@H](O)C=CC(=O)[C@]6(C)[C@H]5CC[C@@]43C)[C@@H](C1)OC(=O)[C@]2(C)O (stereo partly drawn) [Compound 22, Anomanolide D]
IC50 Hep G2 [1]: >20 µg/mL | IC50 A-549 [2]: >20 µg/mL | IC50 MDA-MB-231 [3]: >20 µg/mL | IC50 Hep 3B [4]: 19.03 µg/mL (≈ 35.3 µM) | IC50 MCF-7 [5]: >20 µg/mL

C[C@@]12CC([C@@]3(O)[C@H](O)C[C@H]4[C@@H]5C[C@H](O)[C@]6(O)CC=CC(=O)[C@]6(C)[C@H]5CC[C@@]43C)[C@@H](C1)OC(=O)[C@]2(C)O (stereo partly drawn) [Compound 23, Anomanolide E]
IC50 Hep G2 [1]: >20 µg/mL | IC50 A-549 [2]: >20 µg/mL | IC50 MDA-MB-231 [3]: >20 µg/mL | IC50 Hep 3B [4]: >20 µg/mL | IC50 MCF-7 [5]: >20 µg/mL

C[C@@]12CC([C@@]3(O)[C@H](O)C[C@H]4[C@@H]5CC[C@]6(O)[C@@H](O)C=CC(=O)[C@]6(C)[C@H]5CC[C@@]43C)[C@@H](C1)OC(=O)[C@]2(C)O (stereo partly drawn) [Compound 24, Anomanolide F]
IC50 Hep G2 [1]: >20 µg/mL | IC50 A-549 [2]: >20 µg/mL | IC50 MDA-MB-231 [3]: >20 µg/mL | IC50 Hep 3B [4]: >20 µg/mL | IC50 MCF-7 [5]: >20 µg/mL

C[C@]1(O)C[C@H]2OC(=O)[C@]1(C)C[C@H]2[C@@]1(O)[C@H](O)C[C@H]2[C@@H]3C[C@H](Cl)[C@]4(O)[C@@H](O)C=CC(=O)[C@]4(C)[C@H]3CC[C@@]21C [Compound 25, Tubonolide A]
IC50 Hep G2 [1]: 5.09 µg/mL (≈ 9.44 µM) | IC50 A-549 [2]: 5.91 µg/mL (≈ 11 µM) | IC50 MDA-MB-231 [3]: >20 µg/mL | IC50 Hep 3B [4]: 6.54 µg/mL (≈ 12.1 µM) | IC50 MCF-7 [5]: 12.03 µg/mL (≈ 22.3 µM)
